In patent publication US5085993A, “Coenzyme-independent L-sorbosone dehydrogenase from Pseudomonas putida” (Hoffmann-La Roche Inc., priority 1987, dated 1992):
Where two headings read alike, the source gives them in different places. Blank lines part the entries; values can stand above or below the compound they belong to.

Legend:
[1] = system: coenzyme independent L-sorbosone dehydrogenase of P. putida ATCC 21812
Procedure: Enzyme assay was carried out at 25° C. by measuring the decrease of absorbance at 600 nm of DCIP spectrophotometrically. One unit of enzyme activity was defined as the amount of enzyme which catalyzed the reduction of 1 μmole of DCIP per minute. The extinction coefficient of DCIP at pH 7.0 was taken as 9.45 mM^-1.
The basal reaction mixture was prepared by mixing 6 ml of 0.1M potassium phosphate buffer (pH 7.0) containing 0.3% Triton X-100, 0.45 ml of 2.5 mM DCIP and 10.35 ml of water. A cuvette with 1 cm light path contained 0.4 ml of basal reaction mixture, 20 μl of 10 mM phenazine methosulfate, 10 μl of enzyme solution and 20 μl of 110 mM L-sorbosone solution. A reference cuvette contained all the reagents except enzyme solution, but 10 μl of water was added instead. The reaction was started by the addition of the substrate.

[2] = system: coenzyme independent L-sorbosone dehydrogenase from P. putida ATCC 21812; test: Measurement of the Km value (DCIP/phenazine methosulfate enzyme assay); format: biochemical, Pseudomonas putida ATCC 21812; settings: DCIP and phenazine methosulfate as electron acceptors; 25° C., pH 7.0; read-out: apparent Michaelis constant (Km) for L-sorbosone
Procedure: In the procedure described under 1) above, the velocities of oxidizing reactions with varying concentrations of L-sorbosone were measured to determine the apparent Michaelis constant (Km) for L-sorbosone. Km value was calculated to be 13±2 mM with DCIP and phenazine methosulfate as electron acceptors.

[3] = system: coenzyme independent L-sorbosone dehydrogenase of P. putida ATCC 21812; test: Effect of addition of PQQ on the enzyme activity; format: biochemical, Pseudomonas putida ATCC 21812; settings: 0 PQQ = 100
From the text: Significant increase of the enzyme activity was observed by the addition of PQQ.

Compound: O=C(O)CI [ICH2 COOH, monoiodoacetate]
Relative activity (%) [1]: 88.6%

Compound: O=CC(=O)[C@@H](O)[C@H](O)[C@@H](O)CO [L-sorbosone]
Km [2]: 13 ± 2 mM

Compound: [N-]=[N+]=[N-].[Na+] [NaN3, Sodium azide]
Relative activity (%) ([1]; inhibitor 25.0 mM, None = 100.0): 77.3%

Relative enzyme activity ([3]; PQQ concentration 0.1 (Micro Moles)): 106
Relative enzyme activity ([3]; PQQ concentration 0.2 (Micro Moles), 0.2 µM): 142
Relative enzyme activity ([3]; PQQ concentration 0.5 (Micro Moles), 0.5 µM): 150
Relative enzyme activity ([3]; PQQ concentration 0.9 (Micro Moles), 0.9 µM): 158
Relative enzyme activity ([3]; PQQ concentration 6.0 (Micro Moles), 6 µM): 174
Relative enzyme activity ([3]; PQQ concentration 15.0 (Micro Moles), 15 µM): 192
Compound: O=C(O)c1cc(C(=O)O)c2c(n1)C(=O)C(=O)c1cc(C(=O)O)[nH]c1-2 [PQQ, pyrroloquinoline quinone]
